Source: PubChem BioAssay AID1963868 (Molecular Pharmacology Branch, DTP, NCI, 2024)

Tested on: KRAS PDC tumor spheroids (HUVEC+MSC), viability
Assay: Anticancer human tumor 254851-301-R-J1-PDC patient-derived colon carcinoma cell line growth inhibition [KRAS2]
Conditions: for viability, T/C: stronger effect = lower value
Method in brief: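 Combination screen of spheroid viability in tumor-cell co-cultures with endothelial (HUVEC) and mesenchymal stem cell stroma. Each agent was tested in half-log dilutions, topping at clinical Cmax or at 10 microM without a known Cmax.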

[1] = curve of first compound, second compound 0.1 µM
[2] = curve of first compound, second compound 0.316 µM
[3] = curve of first compound, second compound 1 µM
[4] = curve of first compound, second compound 3.16 µM
[5] = curve of first compound, second compound 10 µM
[6] = second compound 0.1 µM, first compound 0.0316 µM
[7] = second compound 0.1 µM, first compound 0.1 µM
[8] = second compound 0.1 µM, first compound 0.316 µM
[9] = second compound 0.1 µM, first compound 1 µM
[10] = second compound 0.1 µM, first compound 3.16 µM
[11] = second compound 0.1 µM, first compound 10 µM
[12] = second compound 0.316 µM, first compound 0.0316 µM
[13] = second compound 0.316 µM, first compound 0.1 µM
[14] = second compound 0.316 µM, first compound 0.316 µM
[15] = second compound 0.316 µM, first compound 1 µM
[16] = second compound 0.316 µM, first compound 3.16 µM
[17] = second compound 0.316 µM, first compound 10 µM
[18] = second compound 1 µM, first compound 0.0316 µM
[19] = second compound 1 µM, first compound 0.1 µM
[20] = second compound 1 µM, first compound 0.316 µM
[21] = second compound 1 µM, first compound 1 µM
[22] = second compound 1 µM, first compound 3.16 µM
[23] = second compound 1 µM, first compound 10 µM
[24] = second compound 3.16 µM, first compound 0.0316 µM
[25] = second compound 3.16 µM, first compound 0.1 µM
[26] = second compound 3.16 µM, first compound 0.316 µM
[27] = second compound 3.16 µM, first compound 1 µM
[28] = second compound 3.16 µM, first compound 3.16 µM
[29] = second compound 3.16 µM, first compound 10 µM
[30] = second compound 10 µM, first compound 0.0316 µM
[31] = second compound 10 µM, first compound 0.1 µM
[32] = second compound 10 µM, first compound 0.316 µM
[33] = second compound 10 µM, first compound 1 µM
[34] = second compound 10 µM, first compound 3.16 µM
[35] = second compound 10 µM, first compound 10 µM
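Note: spheroids exposed to compounds for seven days before readout.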
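Throughout, for viability, T/C: 100% = DMSO vehicle control luminescence of the spheroids.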

| Compound | IC50 [1] | IC50 [2] | IC50 [3] | IC50 [4] | IC50 [5] | viability, T/C [6] | viability, T/C [7] | viability, T/C [8] | viability, T/C [9] | viability, T/C [10] | viability, T/C [11] | viability, T/C [12] | viability, T/C [13] | viability, T/C [14] | viability, T/C [15] | viability, T/C [16] | viability, T/C [17] | viability, T/C [18] | viability, T/C [19] | viability, T/C [20] | also measured |
| --- | --- | --- | --- | --- | --- | --- | --- | --- | --- | --- | --- | --- | --- | --- | --- | --- | --- | --- | --- | --- | --- |
| COc1cc(Nc2ncc3c(n2)-c2ccc(Cl)cc2C(c2c(F)cccc2OC)=NC3)ccc1C(=O)O + COc1cc2nc(C)nc(NC(C)c3cc(N)cc(C(F)(F)F)c3)c2cc1OC1CCOC1 | 88.4 nM | 85.9 nM | 80.7 nM | 77.1 nM | 48.3 nM | 77.7% | 42% | 31.5% | 25.1% | 14% | 9.19% | 83.9% | 39.8% | 30.7% | 24.1% | 17% | 8.65% | 77.4% | 39.1% | 30.1% | viability, T/C [21]: 24.6%; viability, T/C [22]: 18.5%; viability, T/C [23]: 8.42%; viability, T/C [24]: 74.5%; viability, T/C [25]: 38.8%; viability, T/C [26]: 30.2%; viability, T/C [27]: 25.8%; viability, T/C [28]: 20.3%; viability, T/C [29]: 10.9%; viability, T/C [30]: 58.6%; viability, T/C [31]: 34.1%; viability, T/C [32]: 28.9%; viability, T/C [33]: 25%; viability, T/C [34]: 22.4%; viability, T/C [35]: 16.4% |
| COc1cc2nccc(Oc3ccc(NC(=O)C4(C(=O)Nc5ccc(F)cc5)CC4)cc3)c2cc1OC + COc1cc2nc(C)nc(NC(C)c3cc(N)cc(C(F)(F)F)c3)c2cc1OC1CCOC1 | > 10000 nM | > 10000 nM | > 10000 nM | > 10000 nM | 2670 nM | 101% | 109% | 114% | 99% | 58% | 96.4% | 85.9% | 108% | 122% | 90% | 66.2% | 98.8% | 103% | 106% | 104% | viability, T/C [21]: 90%; viability, T/C [22]: 42.1%; viability, T/C [23]: 84.4%; viability, T/C [24]: 103%; viability, T/C [25]: 104%; viability, T/C [26]: 87.7%; viability, T/C [27]: 80.6%; viability, T/C [28]: 20.9%; viability, T/C [29]: 92.7%; viability, T/C [30]: 64.5%; viability, T/C [31]: 103%; viability, T/C [32]: 90%; viability, T/C [33]: 67.2%; viability, T/C [34]: 4%; viability, T/C [35]: 90.1% |
| COc1cc2nc(C)nc(NC(C)c3cc(N)cc(C(F)(F)F)c3)c2cc1OC1CCOC1 (stereo unspecified) |  |  |  |  |  |  |  |  |  |  |  |  |  |  |  |  |  |  |  |  | viability, T/C (compound 1 µM): 92.5% [middle of 17 runs]; IC50 (compound alone, run of 07/12/2021): > 10000 nM; IC50 (compound alone, run of 07/19/2021): > 10000 nM; IC50 (compound alone, run of 07/26/2021): > 10000 nM |
| CN(C)C/C=C/C(=O)Nc1cc2c(Nc3ccc(F)c(Cl)c3)ncnc2cc1O[C@H]1CCOC1 |  |  |  |  |  |  |  |  |  |  |  |  |  |  |  |  |  |  |  |  | viability, T/C (compound 0.000316 µM): 104% [middle of 5 runs]; viability, T/C (compound 0.001 µM): 108% [middle of 5 runs]; viability, T/C (compound 0.00316 µM): 104% [middle of 5 runs]; viability, T/C (compound 0.01 µM): 96.8% [middle of 5 runs]; viability, T/C (compound 0.0316 µM): 97.6% [middle of 5 runs]; viability, T/C (compound 0.1 µM): 81.5% [middle of 5 runs]; IC50 (curve of compound): > 100 nM |
| COC(=O)c1ccc2c(C(=Nc3ccc(N(C)C(=O)CN4CCN(C)CC4)cc3)c3ccccc3)c(O)[nH]c2c1 + CNCc1ccccc1-c1csc(C(C)Nc2nc(C)nc3cc(OC)c(OC)cc23)c1 | > 10000 nM | > 10000 nM | > 10000 nM | 378 nM | < 31.6 nM | 101% | 94.3% | 96.3% | 91% | 83.9% | 95.9% | 93.1% | 93.6% | 91.9% | 87% | 77.4% | 86.2% | 91.8% | 96.5% | 84.8% | viability, T/C [21]: 79.9%; viability, T/C [22]: 69.2%; viability, T/C [23]: 59%; viability, T/C [24]: 63.6%; viability, T/C [25]: 70.2%; viability, T/C [26]: 58.8%; viability, T/C [27]: 2.44%; viability, T/C [28]: 0.21%; viability, T/C [29]: 0.68%; viability, T/C [30]: 0.16%; viability, T/C [31]: 0.16%; viability, T/C [32]: 0.25%; viability, T/C [33]: 0.11%; viability, T/C [34]: 0.1%; viability, T/C [35]: 0.16% |
| CCNC(=O)CC1N=C(c2ccc(Cl)cc2)c2cc(OC)ccc2-n2c(C)nnc21 (stereo unspecified) + C=CC(=O)N1CCN(c2nc(=O)n(-c3c(C)ccnc3C(C)C)c3nc(-c4c(O)cccc4F)c(F)cc23)C(C)C1 | > 10000 nM | > 10000 nM | > 10000 nM | > 10000 nM | > 10000 nM | 107% | 99.6% | 96.8% | 91% | 81% | 77.3% | 95% | 86.4% | 95.2% | 76.2% | 82.2% | 65.1% | 80.3% | 94.8% | 86.3% | viability, T/C [21]: 80.7%; viability, T/C [22]: 89.3%; viability, T/C [23]: 74.2%; viability, T/C [24]: 72.3%; viability, T/C [25]: 76.1%; viability, T/C [26]: 97%; viability, T/C [27]: 84.5%; viability, T/C [28]: 79.9%; viability, T/C [29]: 59.4%; viability, T/C [30]: 105%; viability, T/C [31]: 96.2%; viability, T/C [32]: 95.6%; viability, T/C [33]: 91.2%; viability, T/C [34]: 86%; viability, T/C [35]: 67.8% |
